# Test results reported in US7560436B2, “Methods of treating gastrointestinal inflammation” (The Regents of the University of California, priority 2005, dated 2009).
# Key:
# DSS-induced colitis = DSS-induced colitis in mice (disease activity index, colonic MPO activity, histological score, mortality); format: in vivo, mouse; conditions: for DAI (disease activity index) / HS (histological score) / MPO (U/g): 1.5% DSS
# Source text: In a previous study the concentration of DSS was identified that was required to induce a similar severity of colitis in the different mouse strains used in this study (Rachmilewitz et al. (2004) Gastroenterology 126:520-528). Mice on the B6 background were given 1.5% (w/v) DSS, mice on the 129/SvEv background were given 4% DSS and mice on the Balb/c background were given 3.5% DSS dissolved in sterile, distilled water ad libitum for 7 days (Rachmilewitz et al. (2004) supra). […] The disease activity index (DAI; the combined score of weight loss and bleeding) was determined as described (Rachmilewitz et al. (2002) Gastroenterology 122:1428-144110; and Rachmilewitz et al. (2004) supra). Briefly, scores are defined as follows: Loss in body weight: 0=no loss; 1=5% to 10%; 2=10% to 15%; 3=15% to 20%; 4=over 20%. Hemoccult: 0=no blood; 2=positive; 4=gross blood.
# The colon tissues were longitudinally opened and a 50 mg portion was homogenized in hexadecyltrimethyl-ammonium bromide (0.5%) in 50 mmol/L phosphate buffer, pH6.0. The homogenate was sonicated for 10 seconds, freeze-thawed 3 times, and centrifuged for 15 minutes. An aliquot of the supernatant was taken for determination of enzyme activity as described (Rachmilewitz et al. (2002) supra; and Rachmilewitz et al. (2004) supra).
# After 7 days of DSS administration, mice were killed and the entire colon was excised, longitudinally opened, rolled onto a wooden stick, fixed with Bouin's Solution (Sigma, St. Louis, Mo.), and embedded in paraffin. Tissue sections (5 μm) were prepared, deparaffinized, and stained with hematoxylin and eosin. Histological scoring was performed in a blinded fashion. Colonic epithelial damage was scored as follows: 0=normal; 1=hyper-proliferation, irregular crypts, and goblet cell loss; 2=mild to moderate crypt loss (10-50%); 3=severe crypt loss (50-90%); 4=complete crypt loss, surface epithelium intact; 5=small to medium sized ulcer (<10 crypt widths); 6=large ulcer (≧10 crypt widths). Infiltration with inflammatory cells was scored separately for mucosa (0=normal, 1=mild, 2=modest, 3=severe), submucosa (0=normal, 1=mild to modest, 2=severe), and muscle/serosa (0=normal, 1=moderate to severe). Scores for epithelial damage and inflammatory cell infiltration were added, resulting in a total scoring range of 0-12.
# [1] = test system: bone marrow-derived myeloid dendritic cells (MDC) from RAG−/− mice; test: DNA-PK inhibitor on CpG-ODN-induced cytokine production in MDC; format: cell-based, mouse; conditions: various concentrations of NU7026, with or without CpG-ODN
# Procedure: Since deletion of the kinase domain of DNA-PKcs is responsible for the SCID phenotype, the role of DNA-PK in TLR9-mediated type-I IFN induction was investigated. To do so, bone marrow-derived myeloid dendritic cells (MDC) from RAG^−/− mice were incubated with various concentrations of NU7026, a DNA-PK inhibitor (Calbiochem, San Diego, Calif.), with or without CpG-ODN. […] In contrast, the activation of NF-κB, MAPK, IRF-3 and IRF-7 were similar in these cells (FIG. 2B), indicating a specific signaling blockade downstream to TLR9 in SCID but not in RAG^−/− BM-MDC.
# [2] = RAG1−/− mice (B6), ODN 10 μg/animal s.c. once 2 h prior, day 7, mean±SEM
# [3] = SCID mice (B6), ODN 10 μg/animal s.c. once 2 h prior, day 7, mean±SEM
# [4] = Table 6: SCID mice (B6), 1000 U recombinant mIFN-β i.p. prior to and on days 2, 4, 6, day 7, mean±SEM
molecule,measurement,setting,value
"CpG-ODN-2: phosphodiester and phosphothioate-modified class A CpG-ODN, 5′-Ggtgcatcgatgca GGGGGg-3′; SEQ ID NO:05 (GGTGCATCGATGCAGGGGGG; DNA, linkages s1 o13 s5 (s phosphorothioate, o phosphodiester), methylation of C not given here)",DAI (disease activity index),DSS-induced colitis; [2],1.9 ± 0.7^A
same,HS (histological score),DSS-induced colitis; [2],5.0 ± 0.8^A
same,MPO (U/g),DSS-induced colitis; [2],0.9 ± 0.2^A U/g
same,DAI (disease activity index),DSS-induced colitis; [3],6.5 ± 0.6
same,HS (histological score),DSS-induced colitis; [3],9.8 ± 0.3
same,MPO (U/g),DSS-induced colitis; [3],1.3 ± 0.1 U/g
O=c1cc(N2CCOCC2)oc2c1ccc1ccccc12 [NU7026],IFN-α/β production induced by CpG-ODN,[1],selectively inhibited IFN-α/β
same,IL-12 (p40) production induced by CpG-ODN,[1],without affecting IL-12 (p40) production
IFN-β: recombinant murine IFN-β from Chemicon International,disease activity and histological scores (in words),"DSS-induced colitis; DSS-treated SCID mice, recombinant mIFN-β",decreased the disease activity and the histological scores
same,DAI (disease activity index),DSS-induced colitis; [4],4.6 ± 0.9^A
same,HS (histological score),DSS-induced colitis; [4],6.8 ± 1.2^A
same,MPO (U/g),DSS-induced colitis; [4],1.2 ± 0.1 U/g
